Laboratory results taken from patent US12077537B2 (Gilead Sciences, Inc., priority 2020, dated 2024).

Tested on: HIV-IIIb
Experiment: Antiviral assay in MT4 cells
Format: cell-based
Conditions: Human immunodeficiency virus 1, MT4, 120 h; MT-4 cells mixed with HIV-IIIb at m.o.i. 0.003; 5 days at 37° C.; CellTiter-Glo luminescence; 50% decrease in signal, a measure of HIV-1 replication
Method in brief: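 MT-4 cells were infected with HIV-IIIb at m.o.i. 0.003 for 1 hour, then added to 3-fold serially diluted compound (10 concentrations, quadruplicate) in medium with 10% FBS. After 5 days at 37° C, cell viability was read by CellTiter-Glo chemiluminescence.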

| SMILES | EC50 |
| --- | --- |
| O=C(Cn1nc(C(F)(F)F)c2c1C(F)(F)[C@@H]1C[C@H]21)N[C@@H](Cc1cc(F)cc(F)c1)c1nc2nc(N3CCN(c4nc5ccccc5[nH]4)CC3)sc2cc1-c1ccc2c(c1)C(=O)NC21CC1 [Compound 44, N—((S)-1-(2-(4-(1H-benzo[d]imidazol-2-yl)piperazin-1-yl)-6-(3′ oxospiro[cyclopropane-1,1′-isoindolin]-5′-yl)thiazolo[4,5-b]pyridin-5-yl)-2-(3,5-difluorophenyl)ethyl)-2-((3bS,4aR)-5,5-difluoro-3-(trifluoromethyl)-3b,4,4a,5-tetrahydro-1H-cyclopropa[3,4]cyclopenta[1,2-c]pyrazol-1-yl)acetamide] | 0.0891 µM |
| NC(=O)c1cc(-c2cc3sc(N4CCN(c5nc6ccccc6[nH]5)CC4)nc3nc2[C@H](Cc2cc(F)cc(F)c2)NC(=O)Cn2nc(C(F)(F)F)c3c2C(F)(F)[C@@H]2C[C@H]32)ccc1F [Compound 45, 5-(2-(4-(1H-benzo[d]imidazol-2-yl)piperazin-1-yl)-5-((S)-1-(2-((3bS,4aR)-5,5-difluoro-3-(trifluoromethyl)-3b,4,4a,5-tetrahydro-1H-cyclopropa[3,4]cyclopenta[1,2-c]pyrazol-1-yl)acetamido)-2-(3,5-difluorophenyl)ethyl)thiazolo[4,5-b]pyridin-6-yl)-2-fluorobenzamide] | 0.144 µM |
| NC(=O)c1cc(-c2cc3sc(N4CCN(c5nc6ccccc6[nH]5)CC4)nc3nc2[C@H](Cc2cc(F)cc(F)c2)NC(=O)Cn2nc(C(F)F)c3c2C2CC2CC3)ccc1F (stereo partly drawn) [Compound 46, 5-(2-(4-(1H-benzo[d]imidazol-2-yl)piperazin-1-yl)-5-((1S)-1-(2-(3-(difluoromethyl)-5,5a,6,6a-tetrahydrocyclopropa[g]indazol-1(4H)-yl)acetamido)-2-(3,5-difluorophenyl)ethyl)thiazolo[4,5-b]pyridin-6-yl)-2-fluorobenzamide] | 0.0852 µM |
| NC(=O)c1cc(-c2cc3sc(N4CCN(c5ccncc5)CC4)nc3nc2[C@H](Cc2cc(F)cc(F)c2)NC(=O)Cn2nc(C(F)F)c3c2C2CC2CC3)ccc1F (stereo partly shown) [Compound 47] | 0.0293 µM |
| CC1(O)CN(c2nc3nc([C@H](Cc4cc(F)cc(F)c4)NC(=O)Cn4nc(C(F)(F)F)c5c4C(F)(F)[C@@H]4C[C@H]54)c(-c4ccc5n[nH]c(=O)n5c4)cc3s2)C1 [Compound 48, 2-((3bS,4aR)-5,5-difluoro-3-(trifluoromethyl)-3b,4,4a,5-tetrahydro-1H-cyclopropa[3,4]cyclopenta[1,2-c]pyrazol-1-yl)-N—((S)-2-(3,5-difluorophenyl)-1-(2-(3-hydroxy-3-methylazetidin-1-yl)-6-(3-oxo-2,3-dihydro-[1,2,4]triazolo[4,3-a]pyridin-6-yl)thiazolo[4,5-b]pyridin-5-yl)ethyl)acetamide] | 0.249 µM |
| Cc1c(-c2cc3sc(N4CC(C)(O)C4)nc3nc2[C@H](Cc2cc(F)cc(F)c2)NC(=O)Cn2nc(C(F)(F)F)c3c2C(F)(F)[C@@H]2C[C@H]32)ccc2n[nH]c(=O)n12 [Compound 49, 2-((3bS,4aR)-5,5-difluoro-3-(trifluoromethyl)-3b,4,4a,5-tetrahydro-1H-cyclopropa[3,4]cyclopenta[1,2-c]pyrazol-1-yl)-N—((S)-2-(3,5-difluorophenyl)-1-(2-(3-hydroxy-3-methylazetidin-1-yl)-6-(5-methyl-3-oxo-2,3-dihydro-[1,2,4]triazolo[4,3-a]pyridin-6-yl)thiazolo[4,5-b]pyridin-5-yl)ethyl)acetamide] | 0.0317 µM |
| Cc1c(-c2cc3sc(NCC(C)(C)O)nc3nc2[C@H](Cc2cc(F)cc(F)c2)NC(=O)Cn2nc(C(F)(F)F)c3c2C(F)(F)[C@@H]2C[C@H]32)ccc2n[nH]c(=O)n12 [Compound 54, 2-((3bS,4aR)-5,5-difluoro-3-(trifluoromethyl)-3b,4,4a,5-tetrahydro-1H-cyclopropa[3,4]cyclopenta[1,2-c]pyrazol-1-yl)-N—((S)-2-(3,5-difluorophenyl)-1-(2-((2-hydroxy-2-methylpropyl)amino)-6-(5-methyl-3-oxo-2,3-dihydro-[1,2,4]triazolo[4,3-a]pyridin-6-yl)thiazolo[4,5-b]pyridin-5-yl)ethyl)acetamide] | 0.0262 µM |
| Cn1nc(NS(C)(=O)=O)c2cccc(-c3cc4sc(NCC(C)(C)O)nc4nc3[C@H](Cc3cc(F)cc(F)c3)NC(=O)Cn3nc(C(F)F)c4c3C(F)(F)CCC4(F)F)c21 [Compound 56, (S)-2-(3-(difluoromethyl)-4,4,7,7-tetrafluoro-4,5,6,7-tetrahydro-1H-indazol-1-yl)-N-(2-(3,5-difluorophenyl)-1-(2-((2-hydroxy-2-methylpropyl)amino)-6-(1-methyl-3-(methylsulfonamido)-1H-indazol-7-yl)thiazolo[4,5-b]pyridin-5-yl)ethyl)acetamide] | 0.0558 µM |

Now those with a lower EC50, led by results:

| EC50 | SMILES |
| --- | --- |
| 0.0225 µM | CC1(O)CN(c2nc3nc([C@H](Cc4cc(F)cc(F)c4)NC(=O)Cn4nc(C(F)(F)F)c5c4C(F)(F)[C@@H]4C[C@H]54)c(-c4ccc5c(c4)C(=O)NC54CC4)cc3s2)C1 [Compound 43, 2-((3bS,4aR)-5,5-difluoro-3-(trifluoromethyl)-3b,4,4a,5-tetrahydro-1H-cyclopropa[3,4]cyclopenta[1,2-c]pyrazol-1-yl)-N—((S)-2-(3,5-difluorophenyl)-1-(2-(3-hydroxy-3-methylazetidin-1-yl)-6-(3′-oxospiro[cyclopropane-1,1′-isoindolin]-5′-yl)thiazolo[4,5-b]pyridin-5-yl)ethyl)acetamide] |
| 0.0013 µM | Cn1nc(N)c2cccc(-c3cc4sc(N5CC(C)(O)C5)nc4nc3[C@H](Cc3cc(F)cc(F)c3)NC(=O)Cn3nc(C(F)F)c4c3C3CC3CC4)c21 (stereo partly drawn) [Compound 50, N—((S)-1-(6-(3-amino-1-methyl-1H-indazol-7-yl)-2-(3-hydroxy-3-methylazetidin-1-yl)thiazolo[4,5-b]pyridin-5-yl)-2-(3,5-difluorophenyl)ethyl)-2-(3-(difluoromethyl)-5,5a,6,6a-tetrahydrocyclopropa[g]indazol-1(4H)-yl)acetamide] |
| 0.0097 µM | Cn1nc(N)c2cccc(-c3cc4sc(NCC(C)(C)O)nc4nc3[C@H](Cc3cc(F)cc(F)c3)NC(=O)Cn3nc(C(F)(F)F)c4c3C(F)(F)[C@@H]3C[C@H]43)c21 [Compound 51, N—((S)-1-(6-(3-amino-1-methyl-1H-indazol-7-yl)-2-((2-hydroxy-2-methylpropyl)amino)thiazolo[4,5-b]pyridin-5-yl)-2-(3,5-difluorophenyl)ethyl)-2-((3bS,4aR)-5,5-difluoro-3-(trifluoromethyl)-3b,4,4a,5-tetrahydro-1H-cyclopropa[3,4]cyclopenta[1,2-c]pyrazol-1-yl)acetamide] |
| 0.0096 µM | Cn1nc(NS(C)(=O)=O)c2cccc(-c3cc4sc(NCC(C)(C)O)nc4nc3[C@H](Cc3cc(F)cc(F)c3)NC(=O)Cn3nc(C(F)(F)F)c4c3C(F)(F)[C@@H]3C[C@H]43)c21 [Compound 52, 2-((3bS,4aR)-5,5-difluoro-3-(trifluoromethyl)-3b,4,4a,5-tetrahydro-1H-cyclopropa[3,4]cyclopenta[1,2-c]pyrazol-1-yl)-N—((S)-2-(3,5-difluorophenyl)-1-(2-((2-hydroxy-2-methylpropyl)amino)-6-(1-methyl-3-(methylsulfonamido)-1H-indazol-7-yl)thiazolo[4,5-b]pyridin-5-yl)ethyl)acetamide] |
| 0.0204 µM | Cn1nc(NS(C)(=O)=O)c2cccc(-c3cc4sc(N5CC(C)(O)C5)nc4nc3[C@H](Cc3cc(F)cc(F)c3)NC(=O)Cn3nc(C(F)(F)F)c4c3C(F)(F)[C@@H]3C[C@H]43)c21 [Compound 53, 2-((3bS,4aR)-5,5-difluoro-3-(trifluoromethyl)-3b,4,4a,5-tetrahydro-1H-cyclopropa[3,4]cyclopenta[1,2-c]pyrazol-1-yl)-N—((S)-2-(3,5-difluorophenyl)-1-(2-(3-hydroxy-3-methylazetidin-1-yl)-6-(1-methyl-3-(methylsulfonamido)-1H-indazol-7-yl)thiazolo[4,5-b]pyridin-5-yl)ethyl)acetamide] |
| 0.0135 µM | Cn1nc(NS(C)(=O)=O)c2cccc(-c3cc4sc(NCC(C)(C)O)nc4nc3[C@H](Cc3cc(F)cc(F)c3)NC(=O)Cn3nc(C(F)F)c4c3C(F)(F)[C@@H]3C[C@H]43)c21 [Compound 55, 2-((3bS,4aR)-3-(difluoromethyl)-5,5-difluoro-3b,4,4a,5-tetrahydro-1H-cyclopropa[3,4]cyclopenta[1,2-c]pyrazol-1-yl)-N—((S)-2-(3,5-difluorophenyl)-1-(2-((2-hydroxy-2-methylpropyl)amino)-6-(1-methyl-3-(methylsulfonamido)-1H-indazol-7-yl)thiazolo[4,5-b]pyridin-5-yl)ethyl)acetamide] |
| 0.013 µM | Cn1nc(N)c2cccc(-c3cc4sc(NCC(C)(C)O)nc4nc3[C@H](Cc3cc(F)cc(F)c3)NC(=O)Cn3nc(C(F)F)c4c3C(F)(F)[C@@H]3C[C@H]43)c21 [Compound 57, N—((S)-1-(6-(3-amino-1-methyl-1H-indazol-7-yl)-2-((2-hydroxy-2-methylpropyl)amino)thiazolo[4,5-b]pyridin-5-yl)-2-(3,5-difluorophenyl)ethyl)-2-((3bS,4aR)-3-(difluoromethyl)-5,5-difluoro-3b,4,4a,5-tetrahydro-1H-cyclopropa[3,4]cyclopenta[1,2-c]pyrazol-1-yl)acetamide] |
| 0.0147 µM | Cn1nc(N)c2cccc(-c3cc4sc(N5CC(C)(O)C5)nc4nc3[C@H](Cc3cc(F)cc(F)c3)NC(=O)Cn3nc(C(F)(F)F)c4c3C(F)(F)[C@@H]3C[C@H]43)c21 [Compound 58, N—((S)-1-(6-(3-amino-1-methyl-1H-indazol-7-yl)-2-(3-hydroxy-3-methylazetidin-1-yl)thiazolo[4,5-b]pyridin-5-yl)-2-(3,5-difluorophenyl)ethyl)-2-((3bS,4aR)-5,5-difluoro-3-(trifluoromethyl)-3b,4,4a,5-tetrahydro-1H-cyclopropa[3,4]cyclopenta[1,2-c]pyrazol-1-yl)acetamide] |
